The test system of test [1] is Human non-small cell lung cancer cell line NCI-H1975. The test is described as follows: Inhibition of H1975 cell proliferation (CellTiter luminescent viability). To be noted: Table ID1, EGFR inhibitor-based; H1975, 96 hours; read-out: Inhibitory activity (IC50, nM) on tumor cell proliferation, H1975. The class given is cell-based. The protocol: The tumor cells used herein were cultured in a cell culture medium listed in table 3 at 37 °C in an incubator with 5% CO2. Prior to experimentation, all cell lines used were correctly identified by STR profiling, and tested negative for mycoplasma contamination using a mycoplasma detection kit through routine screenings.
The IC50 values of the compounds of the present disclosure (including the compounds in Table 1, Table 2, and Examples 1-468) were determined using the CellTiter-Meiluncell Luminescent Cell Viability Assay Kit from Dalian Meilun Biotech Co., Ltd. The detailed procedure is as follows: Tumor cells were seeded in 96-well cell culture plates at the densities specified in Table 4. On the following day, the test compounds of the present disclosure were subjected to serial dilution. The dilution can be performed according to one of the following two methods: • (1) The first dilution method: The test compounds of the present disclosure (including the compounds in Table 1, Table 2, and Examples 1-468) were subjected to 5-fold serial dilutions starting from a highest concentration of 2000 μM, resulting in a total of 9 concentrations from high to low (2000, 400, 80, 16, 3.2, 0.64, 0.128, 0.0256, 0.00512 μM). Subsequently, 0.5 μL of the test compound dilution was transferred into the 96-well plate containing the cells, with each well containing 100 μL of cell culture medium. […] Into the 96-well plate, the diluted test compounds and corresponding detection reagents were added, resulting in final test compound concentrations of 500 nM and 10 nM, respectively. The experimental procedure is described below using the diluted 2 μM test compound as an example.
0.5 μL of the aforementioned diluted compound of the present disclosure (including the compounds in Table 1, Table 2, and Examples 1-468) was added to the seeded cells in 100 μL of medium, yielding a final test compound concentration of 10 nM. After the cells were treated with the compounds of the present disclosure for a specified period, the cell viability assay reagent was added to the culture medium according to the kit's instructions to determine cell viability. […] All controls were treated using the same procedure as the compounds of the present disclosure. The growth inhibition curves for the compounds of the present disclosure were plotted using Prism GraphPad software, and the IC50 values were calculated therefrom.

The target of test [2] is T1, human Cereblon WT GST-tagged protein (CRBN) (Homo sapiens, UniProt Q96SW2).
T1 construct: purchased CISBIO 64BDCRBNPEH
The test is described as follows: CRBN binding by HTRF (Cereblon binding kit). Put shortly:
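GST-tagged human Cereblon WT was incubated 3 h at room temperature with compound, thalidomide-Re tracer and Eu anti-GST antibody. Final compound concentrations were 10 to 0.00064 µM (7 points) or 2 and 0.5 µM. Inhibition rate was calculated from HTRF 665/620 nm ratios versus solvent and blank controls.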
In general terms: TR-FRET usually uses a lanthanide donor and a delayed reading to cut background.

Each structure is given as a SMILES string.

T1 sequence (Q96SW2 whole entry): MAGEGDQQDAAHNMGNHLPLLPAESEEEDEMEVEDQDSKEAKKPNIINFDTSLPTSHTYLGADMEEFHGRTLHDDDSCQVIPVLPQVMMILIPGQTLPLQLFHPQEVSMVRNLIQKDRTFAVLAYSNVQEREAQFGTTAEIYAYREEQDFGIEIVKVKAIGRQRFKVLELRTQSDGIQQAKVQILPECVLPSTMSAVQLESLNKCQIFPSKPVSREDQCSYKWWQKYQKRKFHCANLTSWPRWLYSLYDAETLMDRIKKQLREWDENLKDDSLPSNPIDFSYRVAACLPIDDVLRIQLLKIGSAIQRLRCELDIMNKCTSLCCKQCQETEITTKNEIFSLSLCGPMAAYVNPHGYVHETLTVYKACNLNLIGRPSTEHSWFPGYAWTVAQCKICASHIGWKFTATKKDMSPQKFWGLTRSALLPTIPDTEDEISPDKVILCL

Turning to `CN(Cc1ccc2c(c1)C(=O)N(N1CCC(=O)NC1=O)C2=O)C1CCN(c2ccc(-c3cc(F)c4c(c3)C(=O)N(C(C(=O)Nc3nccs3)c3ncn5c3CCC5)C4)cc2)CC1` (centres unmarked) [GT-05196, 2-(6,7-dihydro-5H-pyrrolo[1,2-c]imidazol-1-yl)-2-(6-(4-(4-(((2-(2,4-dioxotetrahydropyrimidin-1(2H)-yl)-1,3-dioxoisoindolin-5-yl)methyl)(methyl)amino)piperidin-1-yl)phenyl)-4-fluoro-1-oxoisoindolin-2-yl)-N-(thiazol-2-yl)acetamide], in test [1], the IC50 was in the range of 10 to 50 nM.

On to `O=C1CCN(N2C(=O)c3ccc(CN4CCN(c5ccc(-c6cc(F)c7c(c6)C(=O)N(C(C(=O)Nc6nccs6)c6ncn8c6CCC8)C7)cc5)CC4)cc3C2=O)C(=O)N1` (centres unmarked) [GT-06160, 2-(6,7-dihydro-5H-pyrrolo[1,2-c]imidazol-1-yl)-2-(6-(4-(4-((2-(2,4-dioxotetrahydropyrimidin-1(2H)-yl)-1,3-dioxoisoindolin-5-yl)methyl)piperazin-1-yl)phenyl)-4-fluoro-1-oxoisoindolin-2-yl)-N-(thiazol-2-yl)acetamide], for which the IC50 in test [1] fell in the range of 100 to 130 nM.

As for `O=C1CCN(N2C(=O)c3cccc(N4CCC(CN5CCN(c6ccc(-c7cc(F)c8c(c7)C(=O)N(C(C(=O)Nc7nccs7)c7ncn9c7CCC9)C8)cc6)CC5)CC4)c3C2=O)C(=O)N1` (centres unmarked) [GT-06162, 2-(6,7-dihydro-5H-pyrrolo[1,2-c]imidazol-1-yl)-2-(6-(4-(4-((1-(2-(2,4-dioxotetrahydropyrimidin-1(2H)-yl)-1,3-dioxoisoindolin-4-yl)piperidin-4-yl)methyl)piperazin-1-yl)phenyl)-4-fluoro-1-oxoisoindolin-2-yl)-N-(thiazol-2-yl)acetamide], in test [1], the IC50 was 10 to 50 nM.

Regarding `O=C1CCN(N2Cc3cc(CN4C[C@H]5C[C@@H]4CN5c4ccc(-c5cc(F)c6c(c5)C(=O)N(C(C(=O)Nc5nccs5)c5ncn7c5CCC7)C6)cc4)ccc3C2=O)C(=O)N1` (stereo partly drawn) [GT-06172, 2-(6,7-dihydro-5H-pyrrolo[1,2-c]imidazol-1-yl)-2-(6-(4-((1R,4R)-5-((2-(2,4-dioxotetrahydropyrimidin-1(2H)-yl)-1-oxoisoindolin-5-yl)methyl)-2,5-diazabicyclo[2.2.1]heptan-2-yl)phenyl)-4-fluoro-1-oxoisoindolin-2-yl)-N-(thiazol-2-yl)acetamide], the IC50 in test [1] was under 10 nM.

For the molecule `O=C1CCN(N2C(=O)c3ccc(CN4C[C@H]5C[C@@H]4CN5c4ccc(-c5cc(F)c6c(c5)C(=O)N(C(C(=O)Nc5nccs5)c5ncn7c5CCC7)C6)cc4)cc3C2=O)C(=O)N1` (stereo partly drawn) [GT-06173, 2-(6,7-dihydro-5H-pyrrolo[1,2-c]imidazol-1-yl)-2-(6-(4-((1R,4R)-5-((2-(2,4-dioxotetrahydropyrimidin-1(2H)-yl)-1,3-dioxoisoindolin-5-yl)methyl)-2,5-diazabicyclo[2.2.1]heptan-2-yl)phenyl)-4-fluoro-1-oxoisoindolin-2-yl)-N-(thiazol-2-yl)acetamide], the IC50 in test [1] lay in the range of 50 to 100 nM. Still for that read-out and setting: the figure for `O=C1CCN(N2C(=O)c3ccc(CN4CCN(C5CCN(c6ccc(-c7cc(F)c8c(c7)C(=O)N(C(C(=O)Nc7nccs7)c7ncn9c7CCC9)C8)cc6)CC5)CC4)cc3C2=O)C(=O)N1` (centres unmarked) [GT-06242, 2-(6,7-dihydro-5H-pyrrolo[1,2-c]imidazol-1-yl)-2-(6-(4-(4-(4-((2-(2,4-dioxotetrahydropyrimidin-1(2H)-yl)-1,3-dioxoisoindolin-5-yl)methyl)piperazin-1-yl)piperidin-1-yl)phenyl)-4-fluoro-1-oxoisoindolin-2-yl)-N-(thiazol-2-yl)acetamide] is 50 to 100 nM; for `O=C1CCN(N2Cc3cc(CN4C5CCC4CN(c4ccc(-c6cc(F)c7c(c6)C(=O)N(C(C(=O)Nc6nccs6)c6ncn8c6CCC8)C7)cc4)C5)ccc3C2=O)C(=O)N1` (centres unmarked) [GT-06250, 2-(6,7-dihydro-5H-pyrrolo[1,2-c]imidazol-1-yl)-2-(6-(4-(8-((2-(2,4-dioxotetrahydropyrimidin-1(2H)-yl)-1-oxoisoindolin-5-yl)methyl)-3,8-diazabicyclo[3.2.1]octan-3-yl)phenyl)-4-fluoro-1-oxoisoindolin-2-yl)-N-(thiazol-2-yl)acetamide] it is under 10 nM.

In the case of `O=C1CCN(N2C(=O)c3ccc(CN4C5CCC4CN(c4ccc(-c6cc(F)c7c(c6)C(=O)N(C(C(=O)Nc6nccs6)c6ncn8c6CCC8)C7)cc4)C5)cc3C2=O)C(=O)N1` (centres unmarked) [GT-06251, 2-(6,7-dihydro-5H-pyrrolo[1,2-c]imidazol-1-yl)-2-(6-(4-(8-((2-(2,4-dioxotetrahydropyrimidin-1(2H)-yl)-1,3-dioxoisoindolin-5-yl)methyl)-3,8-diazabicyclo[3.2.1]octan-3-yl)phenyl)-4-fluoro-1-oxoisoindolin-2-yl)-N-(thiazol-2-yl)acetamide], the IC50 in test [1] lay in the range of 100 to 130 nM. Turning to `O=C1CCN(N2C(=O)c3ccc(CN4CCN(C5CCN(c6ccc(-c7cc(F)c8c(c7)C(=O)N(C(C(=O)Nc7nccs7)c7ncn9c7CCC9)C8)cc6)CC5(F)F)CC4)cc3C2=O)C(=O)N1` (centres unmarked) [GT-06316, 2-(6,7-dihydro-5H-pyrrolo[1,2-c]imidazol-1-yl)-2-(6-(4-(4-(4-((2-(2,4-dioxotetrahydropyrimidin-1(2H)-yl)-1,3-dioxoisoindolin-5-yl)methyl)piperazin-1-yl)-3,3-difluoropiperidin-1-yl)phenyl)-4-fluoro-1-oxoisoindolin-2-yl)-N-(thiazol-2-yl)acetamide], the IC50 in test [1] lay within 50 to 100 nM. On to `O=C1CCN(N2Cc3cc(CN4CCC(N5CCN(c6ccc(-c7cc(F)c8c(c7)C(=O)N(C(C(=O)Nc7nccs7)c7ncn9c7CCC9)C8)cc6)CC5)CC4)ccc3C2=O)C(=O)N1` (centres unmarked) [GT-06324, 2-(6,7-dihydro-5H-pyrrolo[1,2-c]imidazol-1-yl)-2-(6-(4-(4-(1-((2-(2,4-dioxotetrahydropyrimidin-1(2H)-yl)-1-oxoisoindolin-5-yl)methyl)piperidin-4-yl)piperazin-1-yl)phenyl)-4-fluoro-1-oxoisoindolin-2-yl)-N-(thiazol-2-yl)acetamide], for which the IC50 in test [1] lay in the range of 10 to 50 nM. The “Inhibition Rate at 0.5 μM (%)” value in test [2] (0.5 μM) is “a1 (10% < a1 ≤ 20%)”. Further, the “Inhibition Rate at 2 μM (%)” value in test [2] (2 μM) is given as “a5 (53% < a5 ≤ 60%)”. Take `CN(C)C/C=C/C(=O)Nc1cc2c(Nc3ccc(F)c(Cl)c3)ncnc2cc1O[C@H]1CCOC1` [afatinib, Afatinib, reference compound]: in test [1], the IC50 lay in the range of 130 to 200 nM. As to `C#Cc1cccc(Nc2ncnc3cc(OCCOC)c(OCCOC)cc23)c1` [erlotinib, Erlotinib, reference compound], the IC50 in test [1] lay within 1000 to 5000 nM.

Values taken from patent US20260364184A1, “COMPOUND BASED ON OXOISOINDOLINYL-SUBSTITUTED TETRAHYDROPYRIMIDINE-DIONE AND USE THEREOF” (GLUETACS THERAPEUTICS (SHANGHAI) CO., LTD., priority 2023, published 2026).
